Values of other authors, collected in patent US20260028295A1, “COMPOSITIONS THAT CONTAIN SUSPENDED DICYANDIAMIDE, AND RELATED METHODS” (Keystone Specialty Chemicals LLC, priority 2022, published 2026).

Details: 25 degrees Celsius

solubility in water: 4.13 grams per 100 milliliter
SMILES: N#CNC(=N)N [Dicyandiamide]
